# Assay results reported in US20180353460A1, “METHODS OF TREATING UROLOGICAL DISORDERS USING SARMs” (priority 2014, published 2018).
# Like-named read-outs stand apart in the source and are kept apart here.
# Assays:
# [1] = test system: prostate, seminal vesicles and levator ani muscle; assay: Androgenic and anabolic activity in castrated immature male rats, subcutaneous osmotic pumps, 14 days; assay type: in vivo, rat
# Description: Immature male Sprague-Dawley rats, weighing 90 to 100 g, were purchased from Harlan Biosciences (Indianapolis, Ind.). The animals were maintained on a 12 hour light-dark cycle with food and water available ad libitum.
# Rats were randomly distributed into treatment groups groups. One day prior to the start of drug treatment, animals were individually removed from the cage, weighed and anesthetized with an intraperitoneal dose of ketamine/xylazine (87/13 mg/kg; approximately 1 mL per kg). When appropriately anesthetized (i.e., no response to toe pinch), the animals' ears were marked for identification purposes. Animals were then placed on a sterile pad and their abdomen and scrotum washed with betadine and 70% alcohol. The testes were removed via a midline scrotal incision, with sterile suture being used to ligate supra-testicular tissue prior to surgical removal of each testis. The surgical wound site was closed with sterile stainless steel wound clips, and the site cleaned with betadine. The animals were allowed to recover on a sterile pad (until able to stand) and then returned to their cage.
# Twenty-four hours later, animals were re-anesthetized with ketamine/xylazine, and an Alzet osmotic pump(s) (model 2002) was placed subcutaneouly in the scapular region. In this instance, the scapular region was shaved and cleaned (betadine and alcohol) and a small incision (1 cm) made using a sterile scalpel. The osmotic pump was inserted and the wound closed with a sterile stainless steel wound clip. Animals were allowed to recover and were returned to their cage. Osmotic pumps contained the appropriate treatment dissolved in polyethylene glycol 300 (PEG300). Osmotic pumps were filled with the appropriate solution one day prior to implantation. Animals were monitored daily for signs of acute toxicity to drug treatment (e.g., lethargy, rough coat).
# After 14 days of drug treatment, rats were anesthetized with ketamine/xylazine. Animals were then sacrificed by exsanguinations under anesthesia. A blood sample was collected by venipuncture of the abdominal aorta, and submitted for complete blood cell analysis. A portion of the blood was placed in a separate tube, centrifuged at 12,000 g for 1 minute, and the plasma layer removed and frozen at −20° C. The ventral prostates, seminal vesicles, levator ani muscle, liver, kidneys, spleen, lungs, and heart were removed, cleared of extraneous tissue, weighed, and placed in vials containing 10% neutral buffered formalin. Preserved tissues were sent for histopathological analysis.
# For data analysis, the weights of all organs were normalized to body weight, and analyzed for any statistical significant difference by single-factor ANOVA. The weights of prostate and seminal vesicle were used as indexes for evaluation of androgenic activity, and the levator ani muscle weight was used to evaluate the anabolic activity.
# AR = target: T1, AR (Homo sapiens, UniProt P10275); assay: biochemical; assay type: binding
# T1 sequence (P10275 1-920): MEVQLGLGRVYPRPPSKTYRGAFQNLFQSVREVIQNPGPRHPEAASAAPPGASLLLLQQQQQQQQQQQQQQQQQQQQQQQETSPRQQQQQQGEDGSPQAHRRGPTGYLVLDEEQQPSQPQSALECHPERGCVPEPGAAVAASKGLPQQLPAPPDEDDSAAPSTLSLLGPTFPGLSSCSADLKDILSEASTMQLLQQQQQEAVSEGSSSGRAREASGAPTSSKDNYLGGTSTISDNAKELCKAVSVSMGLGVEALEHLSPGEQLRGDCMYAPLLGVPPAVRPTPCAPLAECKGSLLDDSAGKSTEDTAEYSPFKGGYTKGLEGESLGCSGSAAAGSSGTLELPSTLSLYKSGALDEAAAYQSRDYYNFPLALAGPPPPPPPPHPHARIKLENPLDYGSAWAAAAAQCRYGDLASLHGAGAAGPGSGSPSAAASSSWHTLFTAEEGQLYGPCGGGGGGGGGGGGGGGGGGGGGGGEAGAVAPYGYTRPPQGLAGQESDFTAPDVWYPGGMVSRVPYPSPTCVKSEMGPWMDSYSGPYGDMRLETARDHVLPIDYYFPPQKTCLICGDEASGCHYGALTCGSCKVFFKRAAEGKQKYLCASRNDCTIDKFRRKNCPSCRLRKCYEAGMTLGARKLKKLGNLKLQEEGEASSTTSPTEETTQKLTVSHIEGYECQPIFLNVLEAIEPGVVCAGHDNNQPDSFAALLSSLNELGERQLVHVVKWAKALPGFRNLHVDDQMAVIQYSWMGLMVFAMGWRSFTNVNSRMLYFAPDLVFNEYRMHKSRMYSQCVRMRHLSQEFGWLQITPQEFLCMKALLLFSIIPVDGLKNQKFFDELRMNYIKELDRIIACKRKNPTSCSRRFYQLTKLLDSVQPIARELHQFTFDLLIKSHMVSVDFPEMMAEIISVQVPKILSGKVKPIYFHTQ
# [2] = test system: women with stress urinary incontinence; settings: cited from earlier work; for median incontinence episode frequency decreased: placebo 41%
# levator ani muscle [3] = assay: Hershberger assays of compounds H-1 to H-4; assay type: in vivo, rat; settings: calculated in Win Non-Lin
# Description: FIG. 3 depicts results of Hershberger assays of compounds of the invention as described in Example 17. AUC is area under the concentration-time curve.
# Hershberger assays as described above for Formulas VIII-XIV were also performed on compounds H-1, H-2, H-3, & H-4, as reported in FIG. 3, along with AR binding data in some cases in Table 11. The reported Emax values were calculated in Win Non-Lin®.
# levator ani muscle [4] = assay: Levator ani muscle weight in castrated rats treated subcutaneously for 14 days; assay type: in vivo, rat; settings: castrated Sprague Dawley rats, subcutaneous, 3 mg/day
# Text: At sacrifice, organs were weighed and expressed as raw organ weights. Values are expressed as average±S.D. Increased size and strength of pelvic floor muscles is one mechanism by which SARMs are believed to affect UI.
# At sacrifice, organs were weighed and expressed as raw organ weights. Values are expressed as average±S.D.
# ovariectomized rat model = settings: cited from earlier work
# [5] = test system: female rats with experimentally induced stress urinary incontinence; settings: rat models of SUI; cited from earlier work
# [6] = compared with testosterone propionate
# [7] = compared with the vehicle control
# [8] = castrated rats, 0.10 mg/day, 14 days
# [9] = castrated rats, 0.50 mg/day, 14 days
# [10] = castrated rats, 0.75 mg/day, 14 days
# [11] = castrated rats, 1.00 mg/day, 14 days
structure (smiles),measurement,setting,value
"C[C@](O)(COc1ccc(Cl)cc1)C(=O)Nc1ccc(C#N)c(C(F)(F)F)c1 [Compound XI, (S)—N-(4-Cyano-3-(trifluoromethyl)phenyl)-3-(4-chlorophenoxy)-2-hydroxy-2-methylpropanamide]",dose able to maintain levator ani muscle weight of castrated animals at the level of intact animals,"[1]; castrated rats, 14 days",0.3 mg/day
same,"weights of prostate, seminal vesicle and levator ani muscle","[1]; castrated rats, 14 days, FIG. 2","dose-dependent increases in prostate, seminal vesicle and levator ani muscle weights"
same,potency and intrinsic activity in increasing the weight of levator ani muscle,[1]; [6],greater potency and intrinsic activity
same,potency and intrinsic activity in increasing the weights of prostate and seminal vesicle,[1]; [6],lower potency and intrinsic activity
same,Ki,AR; read-out: binding affinity,3.4 ± 0.08 nM
CNCC[C@H](Oc1cccc2ccccc12)c1cccs1 [duloxetine],reduction in incontinence episode frequency,"[2]; Dmochowski et al., placebo 27%",50%
same,median incontinence episode frequency decreased,[2]; duloxetine 20 mg/day,54%
same,median incontinence episode frequency decreased,[2]; duloxetine 40 mg/day,59%
same,median incontinence episode frequency decreased,[2]; duloxetine 80 mg/day,64%
C[C@](O)(COc1ccc(F)cc1)C(=O)Nc1ccc([N+](=O)[O-])c(C(F)(F)F)c1 [Compound H-1],Emax in levator ani muscle,levator ani muscle [3],75 ± 4 % of intact control
C[C@](O)(COc1ccc(Br)cc1)C(=O)Nc1ccc([N+](=O)[O-])c(C(F)(F)F)c1 [Compound H-3],Ki,AR; read-out: Ki,13 ± 2 nM
same,Emax in levator ani muscle,levator ani muscle [3],64 ± 4 % of intact control
"C[C@]12CCC(=O)C[C@@H]1CC[C@@H]1[C@@H]2CC[C@]2(C)[C@@H](O)CC[C@@H]12 [DHT, dihydrotestosterone, reference compound]",levator ani muscle weight,levator ani muscle [4],elicits hypertrophy of the levator ani muscle
C[C@H](Nc1ccc(C#N)c(Cl)c1Cl)C(C)(C)O [GSK2849466A],increase of amplitude of urethral responses during sneezing (AURS),ovariectomized rat model; [7],74%
same,increase of urethral baseline pressure (UBP),ovariectomized rat model; [7],64%
same,rats with fluid leakage during sneezing,ovariectomized rat model; vehicle group 8/8,1/8
C[C@](O)(COc1ccc(I)cc1)C(=O)Nc1ccc([N+](=O)[O-])c(C(F)(F)F)c1 [Compound H-4],Emax in levator ani muscle,levator ani muscle [3],95 ± 7 % of intact control
"C[C@]12CC[C@H]3[C@@H](CCC4=CC(=O)CC[C@@]43C)[C@@H]1CC[C@@H]2O [Testosterone, testosterone]",leak point pressures and size of myofibers,[5],improve leak point pressures and significantly increase the size of myofibers
"C[C@](O)(COc1ccc(F)cc1)C(=O)Nc1ccc(C#N)c(C(F)(F)F)c1 [Compound X, (S)—N-(4-Cyano-3-(trifluoromethyl)phenyl)-3-(4-fluorophenoxy)-2-hydroxy-2-methylpropanamide]",Levator Ani organ weight (Mean ± S.D.),[1]; [8],54.9 ± 5.77 % of intact
same,Prostate organ weight (Mean ± S.D.),[1]; [8],6.4 ± 0.82 % of intact
same,Seminal Vesicles organ weight (Mean ± S.D.),[1]; [8],8.8 ± 1.18 % of intact
same,Levator Ani organ weight (Mean ± S.D.),[1]; [9],55.0 ± 9.23 % of intact
same,Prostate organ weight (Mean ± S.D.),[1]; [9],6.2 ± 0.56 % of intact
same,Seminal Vesicles organ weight (Mean ± S.D.),[1]; [9],9.3 ± 1.57 % of intact
same,Levator Ani organ weight (Mean ± S.D.),[1]; [10],68.9 ± 8.46 % of intact
same,Prostate organ weight (Mean ± S.D.),[1]; [10],7.6 ± 0.74 % of intact
same,Seminal Vesicles organ weight (Mean ± S.D.),[1]; [10],9.8 ± 3.65 % of intact
same,Levator Ani organ weight (Mean ± S.D.),[1]; [11],75.2±9.51 % of intact
same,Prostate organ weight (Mean ± S.D.),[1]; [11],8.7±1.39 % of intact
same,Seminal Vesicles organ weight (Mean ± S.D.),[1]; [11],10.7±0.91 % of intact
same,Ki,AR; read-out: binding affinity,3.3 ± 0.08 nM
same,levator ani muscle weight,levator ani muscle [4],elicits hypertrophy of the levator ani muscle
C[C@](O)(COc1ccc(Cl)cc1)C(=O)Nc1ccc([N+](=O)[O-])c(C(F)(F)F)c1 [Compound H-2],Emax in levator ani muscle,levator ani muscle [3],136 ± 9 % of intact control
